“Also recorded” adds a separate entry of the source.
Experiments:
ATGL = ATGL response to glucose deprivation after UCB9608-mediated depletion of Golgi Ptdlns4P; assay type: cell-based; conditions: Golgi Ptdlns4P depleted by UCB9608
male C57BL/6N mice = assay: Murine NASH model (HFD, glucose/fructose water, thermoneutral housing); assay type: in vivo, mouse
Procedure: To model NASH in murine liver, male C57BL/6N mice were challenged with HFD for 24 weeks in conjunction with 18.9 g/L glucose&23.1 g/L fructose containing drinking water under thermoneutral housing condition (29°C) for 12 weeks before the administration of UCB9608 through HFD (15 mg/kg) for another 12 weeks. Then the mice were analysed in EcoMRI for body composition measurement before 6 hours fasting, followed by dissection to harvest liver and sample blood.
Total RNA was extracted from adipose depots, liver or in vitro cell cultures via Trizol reagent (Invitrogen) according to the manufacturer's instructions. Genomic DNA was removed from the crude RNA samples by DNase treatment (NEB BioLabs). For individual sample, 1 µg of total RNA was used to convert into cDNA library by using the High-Capacity cDNA Reverse transcription kit (Applied Biosystems, 4368813). Quantitative PCR was performed using KAPA SYBR FAST Universal kit (Roche, KK4618) on ViiA7 (Applied Biosystems) and the relative transcript levels were normalized to […] expression via ΔΔCt method. Table 2: Sequences of qPCR primers used in this study.
Plasma collected from mice under different conditions was used to determine levels of lipolysis and liver injury. FFA levels were measured via NEFA assay kit (Wako NEFA kit). TG levels were determined via TG assay kit (Roche Trig/GB reagent). ALT (MAK052, Sigma) and AST (MAK055, Sigma) assay kits were used to determine ALT and AST activity according to the manufacturer's instructions. The absorbance was monitored using Synergy Gen5 Platereader.
Weight of liver pieces (50-100 mg) was recorded before homogenization by 1 mL isopropanol per 50 mg tissue. The homogenates were incubated at room temperature with rotating before spinning down to remove debris at 2000×g for 10 min and collect supernatant. The TG levels were determined (Roche Trig/GB reagent) in Synergy Gen5 Platereader and normalized to the weight of liver pieces.
For NASH cohort, livers were dissected and fixed with 4% PFA in PBS for 24 h at 4°C. The samples were sent to the University of Zurich for histologic analyses. Briefly, liver tissues were dehydrated and embedded in paraffin and underwent section at 3 µm. The slides were stained with hematoxylin and eosin (H&E) and Gomori Green Trichrome directly or stained with anti-cleaved Caspase 3 after antigen retrieval. Afterwards, the images were captured by digital slide scanners and the grade of steatosis, ballooning, inflammation and fibrosis were quantified via the NASH Clinical Research Network Scoring System (Kleiner,D.E. et al. Hepatology 41, (2005)). To perform ORO staining, the fixed samples were sectioned, and the slides were stained via Oil Red O solution, followed by counter-staining with eosin. The images were acquired by digital slide scanners.

[1] = Precipitation of DMSO solution on mixing with water; assay type: physicochemical; conditions: dissolved in DMSO, not circulated
[2] = system: mouse model with organ engraftment; conditions: in vivo; cited from earlier work
[3] = NASH mice, UCB9608 through HFD (15 mg/kg) 12 weeks
[4] = NASH mice, liver histology, UCB9608 12 weeks vs vehicle

COc1ccc(NC(=O)N2CCN(c3nc(N)nc4c3cnn4C)[C@@H](C)C2)c(C)c1 [UCB9608]
ATGL response to glucose deprivation (ATGL): loss of ATGL regulation
inflammation levels by transcript levels of inflammatory markers (male C57BL/6N mice; NASH livers, qPCR (Fig. 7j)): mitigation
degree of fibrosis-related marker expression (male C57BL/6N mice; NASH livers, qPCR (Fig. 7k), vs vehicle): substantially ameliorated
ALT activity in the plasma (male C57BL/6N mice; [3]): reduction
AST activity in the plasma (male C57BL/6N mice; [3]): reduction
TG levels in the plasma (male C57BL/6N mice; [3]): reduction; also recorded: reduced
fatty acid oxidation (liver) (male C57BL/6N mice; [3]): significant elevation
hepatic TG levels (male C57BL/6N mice; [3]): reduced
liver mass/body weight ratio (male C57BL/6N mice; [3]): reduced
fat mass (male C57BL/6N mice; NASH mice, UCB9608 through HFD (15 mg/kg) 12 weeks, EcoMRI): significant loss
body weight (male C57BL/6N mice; NASH mice, UCB9608 through HFD (15 mg/kg) 12 weeks, vs vehicle): significant loss
NAFLD activity score (male C57BL/6N mice; [4]): significantly lower
fibrosis grade (male C57BL/6N mice; [4]): significantly lower
inflammation levels (male C57BL/6N mice; [4]): significantly lower
liver injury (male C57BL/6N mice; [4]): significantly lower
steatosis grade (male C57BL/6N mice; [4]): significantly lower
behaviour of DMSO solution mixed with water [1]: precipitated
efficacy in the mouse model with organ engraftment [2]: effective
